These results are taken from PubChem BioAssay AID1963425 (Molecular Pharmacology Branch, DTP, NCI, 2024).

The assay relates to 323965-272-R-J2-PDC complex spheroid growth, % test/control. The assay is described as follows: Anticancer human tumor 323965-272-R-J2-PDC patient-derived pancreatic carcinoma cell line growth inhibition [Asc]. The note with it: for viability, T/C: stronger effect = lower value. The method in brief: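 Complex solid-tumor spheroids incorporating human endothelial and mesenchymal stem cells received single agents or combinations over half-log dilution ranges anchored to clinical Cmax.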

Setting [1] is: curve of first compound, second compound 0.0316 µM.
[2] abbreviates: curve of first compound, second compound 0.1 µM.
The mark [3] stands for this setting: curve of first compound, second compound 0.316 µM.
[4] abbreviates: curve of first compound, second compound 1 µM.
The mark [5] stands for this setting: second compound 0.0316 µM, first compound 0.0316 µM.
The mark [6] stands for this setting: second compound 0.0316 µM, first compound 0.1 µM.
Where [7] appears, read: second compound 0.0316 µM, first compound 0.316 µM.
[8] abbreviates: second compound 0.0316 µM, first compound 1 µM.
The mark [9] stands for this setting: second compound 0.0316 µM, first compound 3.16 µM.
The mark [10] stands for this setting: second compound 0.0316 µM, first compound 10 µM.
[11] abbreviates: second compound 0.1 µM, first compound 0.0316 µM.
The mark [12] stands for this setting: second compound 0.1 µM, first compound 0.1 µM.
The mark [13] stands for this setting: second compound 0.1 µM, first compound 0.316 µM.
The mark [14] stands for this setting: second compound 0.1 µM, first compound 1 µM.
The mark [15] stands for this setting: second compound 0.1 µM, first compound 3.16 µM.
Setting [16] is: second compound 0.1 µM, first compound 10 µM.
[17] abbreviates: second compound 0.316 µM, first compound 0.0316 µM.
[18] abbreviates: second compound 0.316 µM, first compound 0.1 µM.
Setting [19] is: second compound 0.316 µM, first compound 0.316 µM.
[20] abbreviates: second compound 0.316 µM, first compound 1 µM.
The mark [21] stands for this setting: second compound 0.316 µM, first compound 3.16 µM.
Where [22] appears, read: second compound 0.316 µM, first compound 10 µM.
[23] abbreviates: second compound 1 µM, first compound 0.0316 µM.
Where [24] appears, read: second compound 1 µM, first compound 0.1 µM.
[25] abbreviates: second compound 1 µM, first compound 0.316 µM.
Where [26] appears, read: second compound 1 µM, first compound 1 µM.
[27] abbreviates: second compound 1 µM, first compound 3.16 µM.
The mark [28] stands for this setting: second compound 1 µM, first compound 10 µM.

Structures are written as SMILES. Where “and” joins values, the source holds several entries; their conditions need not be identical. Equal entries are not always repeated.
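Also: compound exposure lasted 7 days starting three days after spheroid seeding.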
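For viability, T/C in this document: 100% = DMSO vehicle control wells with viability set relative to vehicle.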

For orientation: viability, T/C means the result in the treated group divided by that in the control group, in per cent. What is called IC50 is the concentration that gives 50% inhibition. Regarding `O=C(c1cc(Cc2n[nH]c(=O)c3ccccc23)ccc1F)N1CCN(C(=O)C2CC2)CC1`, the viability, T/C is 105% and 66.7% and 98.1% (compound 0.0316 µM); 86.6% and 102% and 89.1% (compound 0.1 µM); 101% and 116% and 79% (compound 0.316 µM); 104% and 108% and 117% (compound 1 µM); 98.2% and 110% and 94.2% (compound 3.16 µM); 87.7% and 91.1% and 80.9% (compound 10 µM). Also, the IC50 (curve of compound) was over 10 µM.
Take `C=C(F)C(=O)N1CCN(c2nc(OCC3CCCN3C)nc3c2CCN(c2cccc4cccc(Cl)c24)C3)CC1CC#N` (stereo not given) + Cc1c(S(C)(=O)=O)c(-c2cc(F)cc(N3CCN(c4ccc(NS(=O)(=O)c5ccc(NC(CCN6CCC(C(=O)OCCCP(=O)(O)O)CC6)CSc6ccccc6)c(S(=O)(=O)C(F)(F)F)c5)cc4)CC3)c2)c(-c2ccc(Cl)cc2)n1C(C)C: the IC50 reads like this: under setting [1], 4.34 µM; under setting [2], 4.22 µM; under setting [3], 3.72 µM; under setting [4], 3.41 µM; (curve of first compound, second compound 3.16 µM) under 0.0316 µM; (curve of first compound, second compound 10 µM) under 0.0316 µM. Further, the viability, T/C reads like this: under setting [5], 70.5%; under setting [6], 62.3%; under setting [7], 59.3%; under setting [8], 62.1%; under setting [9], 75%; under setting [10], 8.41%. The viability, T/C under setting [11] is 69.7%; the viability, T/C under setting [12] is 61.2%; the viability, T/C under setting [13] is 60.1%; the viability, T/C under setting [14] is 66.7%; the viability, T/C under setting [15] was 72.2%; the viability, T/C under setting [16] was 2.28%. The viability, T/C was 62.3% under setting [17]; 52.4% under setting [18]; 54.4% under setting [19]; 62.2% under setting [20]; 60.1% under setting [21]; 0.32% under setting [22]. For the same molecule, the viability, T/C under setting [23] is 56%; the viability, T/C under setting [24] was 50.8%; the viability, T/C under setting [25] is 51.3%; the viability, T/C under setting [26] was 55.1%; the viability, T/C under setting [27] is 54.1%; the viability, T/C under setting [28] was 0.2%. Further, the viability, T/C is 51.4% (second compound 3.16 µM, first compound 0.0316 µM); 41.2% (second compound 3.16 µM, first compound 0.1 µM); 45% (second compound 3.16 µM, first compound 0.316 µM); 41.8% (second compound 3.16 µM, first compound 1 µM); 36.8% (second compound 3.16 µM, first compound 3.16 µM); 0.16% (second compound 3.16 µM, first compound 10 µM). The viability, T/C reads like this: (second compound 10 µM, first compound 0.0316 µM) 44.1%; (second compound 10 µM, first compound 0.1 µM) 43.5%; (second compound 10 µM, first compound 0.316 µM) 34.5%; (second compound 10 µM, first compound 1 µM) 41.4%; (second compound 10 µM, first compound 3.16 µM) 34.4%; (second compound 10 µM, first compound 10 µM) 0.16%.
For `C=CC(=O)N1CCN(c2nc(=O)n(-c3c(C)ccnc3C(C)C)c3nc(-c4c(O)cccc4F)c(F)cc23)C(C)C1` (stereo not given), the viability, T/C was 68.7% and 71.9% and 67.7% (compound 0.0316 µM); 56.3% and 59.3% and 71.6% (compound 0.1 µM); 58.4% and 59% and 65.9% (compound 0.316 µM); 57% and 64.3% and 67.5% (compound 1 µM); 66.4% and 72.1% and 67.5% (compound 3.16 µM); 64.8% and 65.6% and 61.1% (compound 10 µM). Besides, the IC50 (curve of compound) was over 10 µM.
In the case of `C#Cc1c(F)ccc2cc(O)cc(-c3ncc4c(N5CC6CCC(C5)N6)nc(OCC56CCCN5CC(F)C6)nc4c3F)c12` (stereo not given) + CNC(C)C(=O)NC1CN(S(=O)(=O)c2cccc(S(=O)(=O)N3CCC4CCC(C(=O)NC(c5ccccc5)c5ccccc5)N4C(=O)C(NC(=O)C(C)NC)C3)c2)CCC2CCC(C(=O)NC(c3ccccc3)c3ccccc3)N2C1=O, the IC50 (curve of first compound, second compound 0.00316 µM) was over 10 µM; the IC50 (curve of first compound, second compound 0.01 µM) is over 10 µM; the IC50 under setting [1] is over 10 µM; the IC50 under setting [2] is over 10 µM; the IC50 under setting [3] was over 10 µM; the IC50 under setting [4] was over 10 µM. Moreover, the viability, T/C is 109% (second compound 0.00316 µM, first compound 0.0316 µM); 92.7% (second compound 0.00316 µM, first compound 0.1 µM); 94.1% (second compound 0.00316 µM, first compound 0.316 µM); 94.9% (second compound 0.00316 µM, first compound 1 µM); 70.2% (second compound 0.00316 µM, first compound 3.16 µM); 61.8% (second compound 0.00316 µM, first compound 10 µM). Also, the viability, T/C (second compound 0.01 µM, first compound 0.0316 µM) was 117%; the viability, T/C (second compound 0.01 µM, first compound 0.1 µM) was 102%; the viability, T/C (second compound 0.01 µM, first compound 0.316 µM) was 96.4%; the viability, T/C (second compound 0.01 µM, first compound 1 µM) is 87.4%; the viability, T/C (second compound 0.01 µM, first compound 3.16 µM) was 74.2%; the viability, T/C (second compound 0.01 µM, first compound 10 µM) is 63.2%. Moreover, the viability, T/C was 127% under setting [5]; 102% under setting [6]; 106% under setting [7]; 89.7% under setting [8]; 70.4% under setting [9]; 58.3% under setting [10]. For the same molecule, the viability, T/C under setting [11] was 101%; the viability, T/C under setting [12] is 96.6%; the viability, T/C under setting [13] was 95.4%; the viability, T/C under setting [14] was 91.2%; the viability, T/C under setting [15] was 62.3%; the viability, T/C under setting [16] is 70.2%. In addition, the viability, T/C under setting [17] was 101%; the viability, T/C under setting [18] was 95.1%; the viability, T/C under setting [19] was 96.5%; the viability, T/C under setting [20] was 82.4%; the viability, T/C under setting [21] is 74%; the viability, T/C under setting [22] is 65.4%. Also, the viability, T/C under setting [23] was 90.9%; the viability, T/C under setting [24] is 105%; the viability, T/C under setting [25] was 92.9%; the viability, T/C under setting [26] was 91%; the viability, T/C under setting [27] is 66.8%; the viability, T/C under setting [28] was 53.2%.
Regarding `C#Cc1c(F)ccc2cc(O)cc(-c3ncc4c(N5CC6CCC(C5)N6)nc(OCC56CCCN5CC(F)C6)nc4c3F)c12` (stereo not given), the viability, T/C (compound 0.0316 µM) is 105% and 94.4% and 104%; the viability, T/C (compound 0.1 µM) is 106% and 91.6% and 102%; the viability, T/C (compound 0.316 µM) is 103% and 107% and 98.3%; the viability, T/C (compound 1 µM) was 87.3% and 97.4% and 111%; the viability, T/C (compound 3.16 µM) was 67.9% and 75.1% and 76.7%; the viability, T/C (compound 10 µM) was 62.3% and 59.4% and 62.5%. The IC50 (curve of compound) was over 10 µM.
